Experimental data: ChEMBL document CHEMBL4390636, “Synthesis, spectroscopic characterization, molecular docking and theoretical studies (DFT) of N-(4-aminophenylsulfonyl)-2-(4-isobutylphenyl) propanamide having potential enzyme inhibition applications” (Bioorg Med Chem, 2019)

How the values were obtained:
Acetylcholinesterase [1] = molecular target: T1, Acetylcholinesterase (Homo sapiens, UniProt P22303); assay: Inhibition of AChE (unknown origin) using […] as substrate by Ellman method
Cholinesterase [2] = molecular target: T2, Cholinesterase (Homo sapiens, UniProt P06276); assay: Inhibition of BuChE (unknown origin) at 0.5 mM using butyrylthiocholine bromide as substrate by Ellman method relative to untreated control
Rattus norvegicus [3] = assay: Anti-inflammatory activity in Wistar rat assessed as inhibition of kaolin paw edema at 50 mg/kg, po dosed 1 hr before kaolin injection and measured 4 hrs after kaolin injection relative to untreated control; assay type: functional
Acetylcholinesterase [4] = molecular target: T1, Acetylcholinesterase; assay: Inhibition of AChE (unknown origin) at 0.5 mM using […] as substrate by Ellman method relative to untreated control
[5] = molecular target: T3, Polyunsaturated fatty acid 5-lipoxygenase (Homo sapiens) (UniProt P09917); assay: Inhibition of 5-LOX (unknown origin) relative to untreated control; details: concentration not given here
T3 sequence (whole entry): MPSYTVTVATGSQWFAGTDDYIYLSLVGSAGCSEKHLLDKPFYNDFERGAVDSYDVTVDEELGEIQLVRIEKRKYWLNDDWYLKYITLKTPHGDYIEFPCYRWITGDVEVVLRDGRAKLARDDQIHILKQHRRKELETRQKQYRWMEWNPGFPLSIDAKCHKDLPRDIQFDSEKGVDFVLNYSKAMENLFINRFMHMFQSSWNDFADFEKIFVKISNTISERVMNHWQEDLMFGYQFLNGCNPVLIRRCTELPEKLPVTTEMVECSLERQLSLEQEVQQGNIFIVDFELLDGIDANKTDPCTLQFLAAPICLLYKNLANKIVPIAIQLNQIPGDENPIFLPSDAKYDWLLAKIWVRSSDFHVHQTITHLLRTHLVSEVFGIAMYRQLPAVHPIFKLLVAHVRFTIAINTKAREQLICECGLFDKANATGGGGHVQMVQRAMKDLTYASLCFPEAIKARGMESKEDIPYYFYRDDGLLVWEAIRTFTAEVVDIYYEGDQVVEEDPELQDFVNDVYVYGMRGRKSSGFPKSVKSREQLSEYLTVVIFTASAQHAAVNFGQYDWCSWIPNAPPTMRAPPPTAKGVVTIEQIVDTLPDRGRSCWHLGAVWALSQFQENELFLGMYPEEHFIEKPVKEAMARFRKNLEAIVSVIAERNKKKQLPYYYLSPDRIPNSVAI

[6] = Toxicity in orally dosed Wistar rat monitored every hour for 12 hrs and then every day for 14 days; assay type: organism-based; details: in vivo, po
Rattus norvegicus [7] = assay: Anti-ulcer activity in Wistar rat model of ethanol-induced gastric ulcer model assessed as ulcer area at 50 mg/kg, po dosed 1 hr before ethanol injection relative to untreated control; assay type: functional
Cholinesterase [8] = molecular target: T2, Cholinesterase; assay: Inhibition of BuChE (unknown origin) using butyrylthiocholine bromide as substrate by Ellman method
[9] = Antioxidant activity assessed as DPPH free radical scavenging activity at 0.25 mM relative to untreated control; assay type: functional
[10] = Antioxidant activity assessed as DPPH free radical scavenging activity at 0.5 mM relative to untreated control; assay type: functional

T1 sequence (P22303 whole entry): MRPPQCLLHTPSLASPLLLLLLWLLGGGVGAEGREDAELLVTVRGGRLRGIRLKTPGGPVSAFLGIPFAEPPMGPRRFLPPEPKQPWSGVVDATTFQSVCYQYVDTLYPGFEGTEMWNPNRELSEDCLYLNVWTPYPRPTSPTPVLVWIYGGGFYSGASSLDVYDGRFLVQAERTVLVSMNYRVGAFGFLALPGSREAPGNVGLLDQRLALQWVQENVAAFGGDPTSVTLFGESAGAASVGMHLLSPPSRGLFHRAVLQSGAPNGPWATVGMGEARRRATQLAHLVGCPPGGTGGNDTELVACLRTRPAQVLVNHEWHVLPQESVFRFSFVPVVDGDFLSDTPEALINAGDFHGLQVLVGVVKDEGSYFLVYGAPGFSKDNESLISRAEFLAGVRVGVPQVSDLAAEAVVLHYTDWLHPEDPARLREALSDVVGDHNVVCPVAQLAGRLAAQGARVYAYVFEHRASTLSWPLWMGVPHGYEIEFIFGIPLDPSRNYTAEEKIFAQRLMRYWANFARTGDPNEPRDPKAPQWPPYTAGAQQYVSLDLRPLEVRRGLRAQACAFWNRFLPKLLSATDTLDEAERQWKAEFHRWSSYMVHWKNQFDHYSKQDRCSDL
T2 sequence (P06276 whole entry): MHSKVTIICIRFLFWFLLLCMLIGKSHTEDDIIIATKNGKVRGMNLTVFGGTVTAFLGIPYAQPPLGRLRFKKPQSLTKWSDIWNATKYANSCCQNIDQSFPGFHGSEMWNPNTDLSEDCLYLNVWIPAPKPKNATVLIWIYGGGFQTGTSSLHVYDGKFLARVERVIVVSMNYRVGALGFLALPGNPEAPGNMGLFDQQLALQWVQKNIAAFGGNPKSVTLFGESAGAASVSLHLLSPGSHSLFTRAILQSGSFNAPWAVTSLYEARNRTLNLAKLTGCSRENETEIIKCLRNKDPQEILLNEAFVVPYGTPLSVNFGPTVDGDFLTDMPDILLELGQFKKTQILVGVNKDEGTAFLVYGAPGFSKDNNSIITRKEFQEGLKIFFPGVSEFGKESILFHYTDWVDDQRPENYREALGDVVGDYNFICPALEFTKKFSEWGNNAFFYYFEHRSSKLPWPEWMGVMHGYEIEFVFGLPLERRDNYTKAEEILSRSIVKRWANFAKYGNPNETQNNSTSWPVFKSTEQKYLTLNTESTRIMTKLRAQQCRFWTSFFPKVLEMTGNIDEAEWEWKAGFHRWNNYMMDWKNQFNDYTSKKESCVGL

SMILES	IC50 (Acetylcholinesterase [1])	inhibition (Cholinesterase [2])	inhibition in vivo at 50 mg/kg (Rattus norvegicus [3])	inhibition (Acetylcholinesterase [4])	inhibition [5]	LD50 at 14 days [6]	Activity (Rattus norvegicus [7])	IC50 (Cholinesterase [8])	IC50 [9]	inhibition [10]
CC(C)Cc1ccc(C(C)C(=O)NS(=O)(=O)c2ccc(N)cc2)cc1 (stereo not given)	< 600 µmol	65.9%	75%	47.2%	48.4%	4050 mg/kg	8%	214.41 µmol	–	–
O=c1c(O)c(-c2ccc(O)c(O)c2)oc2cc(O)cc(O)c12 [QUERCETIN]	–	–	–	–	–	–	–	–	16.96 µmol	93.2%
Nc1ccc(S(N)(=O)=O)cc1 [SULFANILAMIDE]	–	5.19%	10%	10.2%	–	–	10%	138.79 µmol	–	–
CC(C)Cc1ccc(C(C)C(=O)O)cc1 (stereo not given) [IBUPROFEN]	235.11 µmol	35.5%	45%	61.2%	42.5%	630 mg/kg	35%	< 600 µmol	< 500 µmol	11.3%
